Results published in US9670512B2, “Methods and compositions for producing fatty alcohols or fatty aldehydes” (REG Life Sciences, LLC, priority 2008, dated 2017).

Columns and labels:
[1] = biological target: T1, Npun02004178 protein (fatty aldehyde decarbonylase) (Nostoc punctiforme, UniProt B2J1M1); assay: in-vitro fatty aldehyde decarbonylase assay with purified Npun02004178 protein; type: biochemical, Nostoc punctiforme PCC73102; details: 200 μM octadecanal, 30 μM Npun02004178, spinach ferredoxin, ferredoxin reductase and NADPH; 37° C., 2 h
T1 construct: His-tag (N); made in house; host or cells: E. coli BL21 (DE3)
T1 sequence (B2J1M1 1-232): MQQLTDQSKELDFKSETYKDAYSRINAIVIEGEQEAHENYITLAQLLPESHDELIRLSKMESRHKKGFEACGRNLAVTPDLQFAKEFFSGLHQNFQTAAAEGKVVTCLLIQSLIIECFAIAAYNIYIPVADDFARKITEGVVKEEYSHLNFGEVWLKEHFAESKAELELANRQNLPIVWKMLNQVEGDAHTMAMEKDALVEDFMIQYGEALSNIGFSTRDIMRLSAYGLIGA
Protocol: The genomic DNA encoding N. punctiforme PCC73102 Npun02004178 (SEQ ID NO:5) was cloned into the NdeI and XhoI sites of vector pET-15b under the control of the T7 promoter. The resulting Npun02004178 protein contained an N-terminal His-tag. An E. coli BL21 strain (DE3) (Invitrogen) was transformed with the plasmid by routine chemical transformation techniques. Protein expression was carried out by first inoculating a colony of the E. coli strain in 5 mL of LB media supplemented with 100 mg/L of carbenicillin and shaken overnight at 37° C. to produce a starter culture. This starter cultures was used to inoculate 0.5 L of LB media supplemented with 100 mg/L of carbenecillin. […] Protein concentration was determined using the Bradford assay (Biorad). […]
To test Npun02004178 protein for decarbonylation activity, the following enzyme assays were set-up. […] Samples were analyzed by GC/MS using the following parameters: run time: 13.13 min; column: HP-5-MS Part No. 19091S-433E (length of 30 meters; I.D.: 0.25 mm narrowbore; film: 0.25 iM); inject: 1 ii Agilent 6850 inlet; inlet: 300 C splitless; carrier gas: helium; flow: 1.3 mL/min; oven temp: 75° C. hold 5 min, 320 at 40° C./min, 320 hold 2 min; det: Agilent 5975B VL MSD; det. temp: 330° C.; scan: 50-550 M/Z. Heptadecane from Sigma was used as an authentic reference for determining compound retention time and fragmentation pattern. […]

[2] = biological target: T2, PCC7942_orf1594 protein (acyl-ACP reductase) (Synechococcus elongatus, UniProt Q54765); assay: acyl-ACP or acyl-CoA reductase enzyme assay with purified PCC7942_orf1594 protein; type: biochemical, Synechococcus elongatus PCC7942; details: for reduction of acyl substrate to fatty aldehyde by PCC7942_orf1594: GC/MS detection of octadecanal/octadecenal, NADPH and divalent cation required
T2 construct: His-tag (C); made in house; host or cells: E. coli BL21 (DE3)
T2 sequence (Q54765 1-341): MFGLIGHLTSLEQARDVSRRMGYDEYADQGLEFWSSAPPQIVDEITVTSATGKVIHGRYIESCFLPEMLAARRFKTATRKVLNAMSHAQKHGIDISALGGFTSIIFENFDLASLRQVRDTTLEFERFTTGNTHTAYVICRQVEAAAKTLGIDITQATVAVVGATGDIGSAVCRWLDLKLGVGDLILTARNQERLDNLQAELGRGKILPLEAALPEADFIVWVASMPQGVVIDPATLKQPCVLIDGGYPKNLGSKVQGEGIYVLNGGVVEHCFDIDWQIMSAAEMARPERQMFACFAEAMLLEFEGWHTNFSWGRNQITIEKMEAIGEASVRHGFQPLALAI
Protocol: The genomic DNA encoding S. elongatus […] orf1594 (SEQ ID NO:65) was cloned into the NcoI and XhoI sites of vector pET-28b under the control of the T7 promoter. The resulting PCC7942_orf1594 protein contained a C-terminal His-tag. An E. coli BL21 strain (DE3) (Invitrogen) was transformed with the plasmid and PCC7942_orf1594 protein was expressed and purified as described in Example 22. The protein solution was stored in the following buffer: 50 mM sodium phosphate, pH 7.5, 100 mM NaCl, 1 mM THP, 10% glycerol. Protein concentration was determined using the Bradford assay (Biorad). 2 mg/mL of PCC7942_orf1594 protein was obtained.
To test PCC7942_orf1594 protein for acyl-ACP or acyl-CoA reductase activity, the following enzyme assays were set-up. 100 μL reactions were set-up in 50 mM Tris-HCl buffer at pH 7.5 with the following components at their respective final concentrations: 10 μM of purified PCC7942_orf1594 protein, 0.01-1 mM acyl-CoA or acyl-ACP, 2 mM MgCl2, 0.2-2 mM NADPH. The reactions were incubated for 1 h at 37° C. and where stopped by adding 100 μL ethyl acetate (containing 5 mg/l 1-octadecene as internal standard). Samples were vortexed for 15 min and centrifuged at max speed for 3 min for phase separation. 80 μL of the top layer were transferred into GC glass vials and analyzed by GC/MS as described in Example 26. The amount of aldehyde formed was calculated based on the internal standard.

Row | Compound | reduction of acyl substrate to fatty aldehyde by PCC7942_orf1594 [2] | further results
1 | CCCCCCCCCCCCCCCCCC=O [octadecanal] |  | in-vitro decarbonylation to heptadecane [1]: in-vitro conversion of octadecanal to heptadecane was observed
2 | NC(=O)C1=CN([C@@H]2O[C@H](COP(=O)(O)OP(=O)(O)OC[C@H]3O[C@@H](n4cnc5c(N)ncnc54)[C@H](O)[C@@H]3O)[C@@H](O)[C@H]2O)C=CC1 [NADH, reference compound] |  | support of reductase activity as electron donor ([2]; octadecanoyl-CoA as substrate, Mg2+): did not support reductase activity
3 | NC(=O)C1=CN([C@@H]2O[C@H](COP(=O)(O)OP(=O)(O)OC[C@H]3O[C@@H](n4cnc5c(N)ncnc54)[C@H](OP(=O)(O)O)[C@@H]3O)[C@@H](O)[C@H]2O)C=CC1 [NADPH, reference compound] |  | Km ([2]; in the presence of 0.5 mM octadecanoyl-CoA, read-out: Km value for NADPH): 400 ± 80 µM
4 | octadecenoyl-ACP | also able to reduce | 
5 | CCCCCCCCCCCCCCCCCC(=O)SCCNC(=O)CCNC(=O)[C@H](O)C(C)(C)COP(=O)(O)OP(=O)(O)OC[C@H]1O[C@@H](n2cnc3c(N)ncnc32)[C@H](O)[C@@H]1OP(=O)(O)O [octadecanoyl-CoA] | able to reduce octadecanoyl-CoA to octadecanal | 
6 | octadecenoyl-CoA | also able to reduce | 
